The values that follow come from US11629141B2, “Proteasome inhibitors and uses thereof” (CORNELL UNIVERSITY, priority 2015, dated 2023).

In experiment [1] the target is T1, human constitutive proteasome β5c (Homo sapiens, UniProt P28074).
T1 construct: purchased Boston Biochem Inc
Nature of the experiment: IC50 against chymotryptic β5c activity of human constitutive proteasome (96-well plate, Suc-LLVY-AMC). The class given is biochemical. On the procedure: A 96-well-plate assays were used to determine the IC50s against the chymotryptic β5 activities of the proteasomes. Both human constitutive proteasome and immunoproteasome were purchased from Boston Biochem Inc. 1 μL of 100× compound in DMSO at designated concentrations were spotted at the bottom of the wells. DMSO was used as a control. Final concentrations of the inhibitors were from 100 μM to 0.098 μM. The hydrolysis of the substrate over time in each well was monitored at excitation 360 nm, emission 460 nm for 90 minutes. IC50s were estimated by fitting the velocities of hydrolysis against compound concentrations using PRISM. […] Suc-LLVY-AMC was used for βc at final concentration of 25 μM, and Ac-ANW-AMC for b5i at final concentration of 15 μM. SDS (0.02%) was used as activator, and 0.01% BSA was used in the reaction buffer.
The foregoing features of these AsnEDA encouraged a further round of SAR studies (Table 5) based on varying the carboxylic acid at the ethylenediamine, the N-cap at the Asn, and the side chain of the Asn, based on PKS21004. All compounds listed in the Table 5 were synthesized as described in Examples 6-77. All final compounds were confirmed by NMR and HRMS. IC50s of all compounds against β5i and β5c (Table 5), β1i, β2i, β1c and β2c were determined following a reported method (Lin et al., “N,C-Capped Dipeptides With Selectivity for Mycobacterial Proteasome Over Human Proteasomes: Role of S3 and S1Binding Pockets,” J Am Chem Soc. 135:9968-9971 (2013), which is hereby incorporated by reference in its entirety). […] The [1,1′-biphenyl]-3-carboxamide of PKS21004 was then modified with the following substituents: 4′-fluoro (PKS21026), 4′-cyano (PKS21028), 4-fluoro (PKS21196), 4,3′-difluoro (PKS21195) and 4,2′-difluoro (PKS21187).

Experiment [2] relates to β5 in Karpas 1106P cells. Nature of the experiment: Intracellular β5 inhibition in Karpas 1106P cells (suc-LLVY-luciferin). Particulars: 2 hours treatment. The class given is cell-based. From the text:
(§1) Data were average of three independent experiments.
(§2) IC50 values with both substrates were identical and indicated cell-penetrating ability. […] No β5i activity was detected in HepG2 cells using (Ac-ANW)2—R110 as substrate (FIG. 2A).

The test system of experiment [3] is Karpas1106P B lymphoma cells. The experiment in a line: Cell viability assay, Karpas1106P. The class given is cell-based. Particulars: Homo sapiens, Karpas-1106P; cytotoxicity, 72 hours. As to the method: (§3) Multiple myeloma cell lines MM.1 S (200,000 cells/mL) and RPMI 8226 (200,000 cells/mL), B lymphoma cell line Karpas1106P (800,000 cells/mL), and liver cancer cell line HepG2 (12,000 cells/mL) were used to determine the cytotoxicity of compounds. Cells were cultured at 37° C. in a humidified air/5% CO2 atmosphere in medium supplemented with 10% fetal bovine serum, except for the medium for Karpas-1106P cells which contained 20% fetal bovine serum, and 100 units/ml penicillin/100 […] streptomycin in RPMI 1640 medium. 12,000 cells/well. Cells plated in a 96-well plate were treated with compounds at the indicated concentrations for 72 hours at 37° C. in a tissue culture incubator with 5% CO2. Viable cells were counted using Cell-titer/glom assay kit. EC50s were calculated using PRISM (Graphpad).

The target of experiment [4] is T2, human immunoproteasome β5i (Homo sapiens, UniProt P28062).
T2 construct: purchased Boston Biochem Inc
The experiment in a line: IC50 against chymotryptic β5i activity of human immunoproteasome (96-well plate, Ac-ANW-AMC). In kind it is biochemical. As to the method: A 96-well-plate assays were used to determine the IC50s against the chymotryptic β5 activities of the proteasomes. Both human constitutive proteasome and immunoproteasome were purchased from Boston Biochem Inc. 1 μL of 100× compound in DMSO at designated concentrations were spotted at the bottom of the wells. DMSO was used as a control. […] The hydrolysis of the substrate over time in each well was monitored at excitation 360 nm, emission 460 nm for 90 minutes. IC50s were estimated by fitting the velocities of hydrolysis against compound concentrations using PRISM. […] SDS (0.02%) was used as activator, and 0.01% BSA was used in the reaction buffer.

The target of experiment [5] is T3, β5i in Karpas 1106P cells (Homo sapiens, UniProt P28062).
T3 construct: endogenous in cells; host or cells: Karpas 1106P
Nature of the experiment: Intracellular β5i inhibition in Karpas 1106P cells ((Ac-ANW)2-R110). Particulars: 2 hours treatment. In kind it is cell-based.
Excerpt: as §1, §2

The test system of experiment [6] is Plasmodium falciparum. The experiment in a line: Growth of Plasmodium falciparum in red blood cells (SYBR Green, 72 hours). In kind it is cell-based. Particulars: Erythrocyte, P.f. 3D7, growth in red blood cells, read-out: EC50 (nM) (P.f.). As to the method:
Continuous in vitro cultures of Plasmodium falciparum: were maintained in human red blood cells (RBC) diluted to a hematocrit of 5% in RPMI 1640 medium with HEPES and Hypoxanthine and completed with 0.5% Albumax II (Invitrogen), 0.25% sodium bicarbonate, and 0.1 mg/ml gentamicin. Parasites were incubated at 37° C. in a gas mixture of 5% oxygen, 5% carbon dioxide, and 90% nitrogen.
Parasite sensitivity to novel compounds were determined using a SYBR Green (Invitrogen S1046) drug assay protocol. P. falciparum of various clinic stains were cultured with compounds at concentrations in a series of dilution in a clear, sterile 96-well plate for 72 hours. Subsequently, 150 μl of the cultures were transferred to a black 96-well plate and placed in the freezer for red blood cell lysis. The plates were thawed and suspended in a Sybr Green Lysis buffer. GraphPad Prism was used to analyze the raw data collected […]. Drug concentrations were converted to logarithms, normalized, and then curve fitted by non-linear regression to obtain EC50 values.
Plasmodium falciparum: parasites were cultured in human red cells. Drug assays were run in 96 well plates at a total volume of 200 μl. Assays were set up at a starting parasitemia (percent of infected red cells) of 0.5%. Test compounds were plated at concentrations of 2778 nM to 0.4 nM. The test plates were grown under standard low oxygen conditions at 37° C. for 72 hours. At that time the plates were prepared for growth determination, first the plates were frozen and thawed to lyse the red blood cells, 150 μl of the lysed thawed culture was transferred to a black 96 well plate, and mixed in a lysis buffer with SYBR green DNA dye. The fluorescence of each well was recorded in a plate reader with excitation wavelength 490 nm and emission wavelength 530 nm and normalized relative to DMSO control. The EC50s were determined using Prism software.

In experiment [7] the test system is RPMI 8226 multiple myeloma cells. The experiment in a line: Cell viability assay, RPMI 8226. The class given is cell-based. The following applies: Homo sapiens, cytotoxicity, 72 hours. On the procedure: as §3
Experiment [8] deals with HepG2 liver cancer cells. Nature of the experiment: Cell viability assay, HepG2. Particulars: Homo sapiens, cytotoxicity, 72 hours. In kind it is cell-based. On the procedure:
as §3

Experiment [9] concerns the target T4, β5c in HepG2 cells (Homo sapiens, UniProt P28074).
T4 construct: endogenous in cells; host or cells: HepG2
The experiment in a line: Intracellular β5c inhibition in HepG2 cells (suc-LLVY-luciferin). In kind it is cell-based. Particulars: 2 hours treatment, read-out: IC50 HepG β5c.
Excerpt: as §1, §2

Experiment [10] addresses T5, hu i-20S β5i (Homo sapiens, UniProt P28062).
T5 construct: purchased Boston Biochem Inc
Nature of the experiment: Kinetic analysis, substrate titration of hu i-20S steady state velocities. In kind it is biochemical. On the procedure: FIGS. 1A-1E are graphs showing inhibition modality of PKS21004 against human proteasomes. Washout of c-20S from the preincubated c-20S and […] to recover the β5c activity (FIG. 1A). Substrate titration of hu i-20S (FIG. 1B) and c-20S (FIG. 1D) steady state velocities in the presence of PKS21004 at the concentrations indicated next to each curve. Data as in (FIG. 1B) were plotted double reciprocal in (FIG. 1C), and (FIG. 1D) in (FIG. 1E).
A washout experiment was used to confirm the reversibility of this class of proteasome inhibitors, as expected from their non-covalent chemistry.

In experiment [11] the test system is MM1.S multiple myeloma cells. Nature of the experiment: Cell viability assay, MM.1S. In kind it is cell-based. The following applies: Homo sapiens, cytotoxicity, 72 hours. On the procedure: as §3

Entries after “also recorded” stand apart in the source; their conditions may differ. Read-outs that look alike come from different tables or passages of the source.

Turning to `Cc1ccc(S(=O)(=O)N[C@@H](CC(=O)NC(C)(C)C)C(=O)NCCNC(=O)c2cc(-c3ccccc3F)ccc2F)cc1` [PKS21221], the 50% inhibitory concentration (IC50) in [1] turned out to be 106 nM; in [1] (b406, read-out: IC50 against β5c), 70 nM; in [2] it was 118 nM; in experiment [4] (IC50 Hu i-20S (Ac-ANW-AMC), β5i, substrate Ac-ANW-AMC) it was 4.1 nM; in experiment [4] (b406, read-out: IC50 against β5i), 2.4 nM; in experiment [5], 172 nM. In [9], the IC50 amounted to 2000 nM. For the same compound, the EC50 was found to be 840 nM in experiment [3]; 0.55 nM in experiment [6]; 75 nM in [7]; 3000 nM in [8]; 95 nM in experiment [11]. Further, the “α for i-20S (β5i)” value in experiment [10] (fit to equation for noncompetitive inhibitors) is recorded as 0.26. In experiment [10] (with respect to substrate), the “modality of inhibition of β5i” value was “noncompetitively inhibits; also recorded: noncompetitive”.
